| Compound | melting point [°C] |
| --- | --- |
| CCOc1ccc(-c2cc(C3CCCCC3)nc(C3CCCCC3)c2)cc1 | 106 |
| CCCc1c(OCCCCCCCCOc2ccc(C(=O)c3cccc(C(=O)O)c3)cc2CCC(=O)O)ccc2c1OCCC2=O | 112 to 117 |
| CS(=O)(=O)c1ccc(C(=O)C2C(=O)CCCC2=O)c(Cl)c1OCc1cc(-c2ccccc2)no1 | 72 to 78 |
| COc1ccc(-c2cc(=O)n(CCc3ccc(Cl)cc3)nc2-c2ccc(OC)cc2)cc1 | 133 to 134 |
| CCCCc1ncc(/C=C(\Cc2cccs2)C(N)=O)n1Cc1cccc(Cl)c1Cl | 185 to 187 |
| Cc1ccc2cccc(OCc3c(C)ccc(N)c3C)c2n1 | 204 to 205 |
| [N-]=[N+]=Nc1ccc(C=Cc2ccncc2)cc1 | 88.2 to 89.4 |
| CN1CC(CN=[N+]=[N-])CC2c3cccc4c3c(cn4C)CC21 (stereo unspecified) | 168 to 169 |
| c1ccc(COc2cccc3c2NCC3)cc1 | 58 to 60 |
| CCOc1cccc(OC)c1CN1CCC(=O)C(C(c2ccccc2)c2ccccc2)C1 (stereo unspecified) | 137 to 138 |
| CC(=O)OCCn1nc(O)c2[nH]c3cc(Cl)ccc3c(=O)c2c1=O | 307 to 309 |
| CSc1c(Cl)nc(N2CCNCC2)nc1NC(C)C | 147 |
| Nc1cc(OCc2ccccc2)c(C(=O)NC2CN3CCC2CC3)cc1Cl (stereo unspecified) | 170 to 171 |
| CCCn1cc2c(C3C(=O)Nc4ccc(Br)cc43)nc(NC3CCNC3)nc2n1 (stereo unspecified) | 315 to 320 |
| CCOCC(COCC)Oc1ccc(/C=C/C(=O)OCC)c(Oc2ncc(C(F)(F)F)cc2Cl)c1 | 66 to 67.5 |
| Cc1ccccc1C=CC=C1SC(=S)N(CC(=O)O)C1=O | 210 to 217 |
| CC(C)C=CC1(C(F)(F)F)OCC(=O)Nc2ccc(F)cc21 (stereo unspecified) | 145 to 156 |
| CCCCOC(=O)C(NC(=O)OCC(Cl)(Cl)Cl)n1cnc2ncncc21 (stereo unspecified) | 114 to 116 |
| COC(=O)C1=Cc2cc(-c3ccc(F)cc3)ccc2S(=O)(=O)CC1 | 180 to 183 |
| Cc1nc[nH]c1CSCCNC(=NCCc1ccccc1)NC#N | 135 to 136 |
| COc1ccc(C2=NN(C3CCN(CCCCCCN4C(=O)c5ccccc5C4=O)CC3)C(=O)[C@@H]3CC=CC[C@H]23)cc1OC | 39 to 44 |
| CCc1cc(CC)nc(S)n1 | 82 to 84.5 |
| CC(C)(C)C(=O)Nc1nc(CN2CCC(c3c[nH]c4ccccc34)CC2)cs1 | 93 to 96 |
| COc1ccc2c(c1N)CN(S(C)(=O)=O)CC(=O)N2 | 232 to 233 |
| CC(=O)c1cccc(Cl)c1C(=O)O | 128 to 129 |
| O=C1Cc2cc(OCc3ccc4ccccc4n3)ccc2N1c1c(Cl)cccc1Cl | 147 to 148 |
| CCCCc1nc(C(=O)O)c(S(=O)(=O)c2ccccc2)n1Cc1ccc(-c2ccccc2C(=O)O)cc1 | 155 |
| CCOCc1nc2c(N)nc3ccccc3c2n1NCCCNC(=O)NC(C)C | 174 to 177 |

| Compound | melting point [°C] |
| --- | --- |
| COc1cc(COc2cccc(O)c2C)cc(OC)c1 | 63 to 69 |
| COCC(=O)Oc1cc(=O)n(-c2ccccc2)c2ncccc12 | 155 to 157 |
| CCCC12COC(c3ccc(Cl)cc3)(CC1=O)OC2 | 96 |
| O=C1Nc2ccccc2C(c2ccc(Cl)c(Cl)c2)CC1Br (stereo unspecified) | 183 to 188 |
| COc1ccnc(N2CCC3(CCCN(Cc4c[nH]c5ccccc45)C3=O)CC2)n1 | 190 to 191 |
| CC(C)c1cccc(C(C)C)c1NC(=S)C1c2ccccc2COc2ccc(Br)cc21 (stereo unspecified) | 190 to 191 |
| O=C(O)c1nnc2ccc(NCCCN3CCC(OC(c4ccccc4)c4ccccc4)CC3)nn12 | 102 to 104 |
| CCOC(=O)/C=C(/c1ccc(OC)cc1)c1cc(C)cc(Cl)c1 | 83 to 85 |
| COC(=O)c1ccc(OCCCN(C(=O)c2ccc(C(C)(C)C)cc2)c2ccc(Cl)cc2)cc1 | 201 to 203 |
| CCCNC(=S)NS(=O)(=O)N1CCC(CCNC(=O)c2cc(Cl)ccc2OC)CC1 | 119 to 121 |
| O=C1C(Cl)=Cc2c(Cl)cc3c4c(c(Cl)cc1c24)C=C(Cl)C3=O | 315 to 320 |
| CC1Cc2cc3c(cc2C(c2ccc(N)cc2)=NN1C(=O)Nc1ccccc1)OCO3 (stereo unspecified) | 118 to 120 |
| CC(=O)N(C)c1cccc(S(=O)(=O)c2ccc(N)cc2)c1 | 178 to 180 |
| C=C[C@H]1CC(C(=O)O)=C[C@@H](OC(C)C)[C@@H]1NC(C)=O | 206 to 207 |
| CCC(CC)(CO)CCCCS(N)(=O)=O | 64 to 65 |
| Cc1ccc(S(=O)(=O)NC(=O)NCCCCCCNC(=O)NS(=O)(=O)c2ccc(C)o2)o1 | 115 to 116 |
| O=c1[nH]c2cc(Cl)cc(OCCNCc3ccsc3)c2[nH]1 | > 250 |
| N#CCNCCc1c[nH]c2ccc(Cl)cc12 | 80 |
| O=[N+]([O-])c1cc(C(F)(F)F)cc2nc(C(F)(F)F)[nH]c12 | 95 to 97 |
| CN(C)S(=O)(=O)N1CCNC1=O | 129 |
| O=C(O)c1cccc(Nc2nc(Oc3ccccc3)nc(Oc3cccc(Cl)c3)n2)c1 | 227 to 230 |
| COc1ccc(Cl)c(NC(C)=S)c1 | 92 to 93 |
| CCOC(=O)CNc1nccc(-c2ccccn2)n1 | 85 |
| CCOC(=O)Cn1c2cccccc-2c(C(N)=O)c1=O | 215 to 220 |
| CCCC(c1cc(C(=O)Nc2ccccc2)ccc1OCc1ccc(Br)cc1)n1ccnc1 (stereo unspecified) | 159 to 166 |
| C#CCOC(=O)C1=C(C)NC(N)=C(C(=O)OCC)C1c1cccc([N+](=O)[O-])c1 (stereo unspecified) | 181 |
| O=C(O)CN1C(=O)N(Cc2cccc([N+](=O)[O-])c2)C(=O)C1O (stereo unspecified) | 153 to 155 |

More lines, now with the values ahead:

| melting point [°C] | Compound |
| --- | --- |
| 188 to 191 | NS(=O)(=O)c1ccc(-n2nc(C(=O)O)cc2-c2ccccc2)cc1 |
| 170 to 172 | CCOCc1nc2c(N)nc3ccccc3c2n1CCCCS(=O)(=O)NC |
| 200 to 201 | COc1ccc(C=CC(=O)Nc2cnc3c(C)cc(C)cc3c2-c2ccccc2Cl)c(OC)c1OC |
| 239 to 241 | O=C(O)c1cccc(-c2nccc(-c3ccc(F)cc3)n2)c1 |
| 96 to 98 | Cc1c(F)c(N2CCC(N)C2)c(C)c2c1c(=O)c(C(=O)O)cn2C1CC1 (stereo unspecified) |
| 261 to 263 | O=c1[nH]c(CCN2CCCCC2)cc2c(O)cccc12 |
| 246 to 247 | Cc1ccc(-c2ccc(C(=O)Nc3ccc4nc(CN5C(C)(C)CCCC5(C)C)ccc4c3)cn2)cc1 |
| 118 to 120 | COCCOc1c(C)c(N2CCN(c3ccc(C)cc3)CC2)c(C)c2c1OC(C)(C)C2 |
| 144 to 146 | COc1cc2c(c3c1OC(C)(C)C3)C(c1ccn(Cc3ccc(C(=O)Nc4ccncc4)cc3)c(=O)c1)=NC(C)(C)C2 |
| 209 to 214 | CN(C)c1ccc(CNC(=O)CNC(=O)Nc2ccc(C(=N)N)cc2)cc1 |
| 139 to 141 | CCCCNC(=O)NC(=N)c1ccccc1 |
| 120 to 121 | O=C(NCCCSc1ccncc1)c1ccccc1 |
| 38 to 40 | N#Cc1ccc(OCc2ccsc2)cc1OC(C(=O)O)c1ccccc1C(F)(F)F (racemic) |
| 84 to 86 | CCC(=O)NCC1CC1c1cccc2nscc12 (stereo unspecified) |
| 123 to 126 | COC(=O)c1ccc(OC)cc1NC(C)=O |
| 84 to 85 | COC(=O)CCc1cnoc1-c1ccc2c(c1)OCO2 |
| 90 | CC(C)(C)OC(=O)C(Nc1ccccc1)c1cccc(Br)c1 (racemic) |
| 44.8 to 46 | COC1=CC(=O)C(OC)=C(CCCCCC2=C(OC)C(=O)C(Cl)=C(OC)C2=O)C1=O |
| 114 to 116 | CCCCCCCCCNC(=O)CCC(=O)O |
| 134 to 135 | CSc1nc(Cl)c(-c2ccccc2)c(NN)n1 |
| 124 to 126 | CCOC(=O)C1=C(C)N=C(SCc2ccc(OC)cc2)N(C(=O)OCC)C1c1cccc(Cl)c1Cl (stereo unspecified) |
| 86 to 88 | Cc1ccc2sc(=O)[nH]c2c1 |
| 133 to 135 | COc1cc2c(Nc3ccc4cn[nH]c4c3)c(C#N)cnc2cc1OCCN1CCOCC1 |

| melting point [°C] | Compound |
| --- | --- |
| 120 to 122 | CCCc1c(OCCCCCCc2cccc(OC(C)=O)c2OC(C)=O)ccc(C(=O)O)c1O |
| 209 | CC(C)c1noc(-c2ncn3c4cccc(Cl)c4c(=O)n(C)c23)n1 |
| 119 to 121 | Cc1ccc(CCc2ccnc(N)c2N)cc1 |
| 50 | CCn1cc(CCC(=O)O)c2ccccc21 |
| 175 | CC(=O)c1ccc(SC2SCC(O)C(O)C2O)cc1 (stereo unspecified) |
| 175 to 176 | CC(C)(C)Nc1nc2cc(CC(=O)O)ccc2o1 |
| 157 | CC(C)(C#N)c1c(Cl)cc(-n2nc(C(=O)O)c(=O)[nH]c2=O)cc1Cl |
| 266 | Cc1ccc(Cl)c2sc(O)nc12 |
| 132 to 134 | COc1cc2c(cc1O)CCN(Cc1cccc(C(C)=O)c1)C2 |
| 88 to 90 | O=C1O[C@@H](CNC(=S)C(F)F)CN1c1cc(F)c(N2CCS(=O)(=O)CC2)c(F)c1 |
| 190 to 192 | CCC(C(=O)C(C)C(O)C(C)CCCC(=O)c1c(NC(C)=O)cc(C)c(O)c1C(=O)O)C1OC(CC)(C2CCC(O)(CC)C(C)O2)CC1C (stereo unspecified) |
| 141 to 144 | OC1CSC(Oc2ccc(-c3ccc(F)nc3)nc2F)C(O)C1O (stereo unspecified) |
| 64 to 68 | Cc1nnsc1C(=O)NCCc1ccccc1 |
| 174 to 187 | CC(=O)Nc1cccc(-c2ccc3nc(-c4cccnc4N)n(-c4ccc(CNC(=O)c5cccc(F)c5)cc4)c3n2)c1 |
| 80 to 82 | CC1(c2ccc3cc(Br)ccc3c2)OCCO1 |
| 56 to 58 | Cc1cc(C#Cc2cccc(-c3ccccc3)c2)ccn1 |
| 140 to 142 | OCC1OC(n2c(Cl)nc3cc(Br)c(Cl)cc32)C(O)C1O (stereo unspecified) |
| 38 to 39 | CCC1CC(=Cc2ccccc2Cl)C(=O)O1 (stereo unspecified) |
| 105 to 106 | CCCCN(CCCC)c1cc(OC)c(C=Cc2ccc(C=O)s2)c(OC)c1 |
| 120 to 125 | Cc1cc(C)c2c(=O)c([N+](=O)[O-])coc2c1 |
| 106 to 108 | Fc1ccc(N2CCN(CCCc3[nH]nc4c3CCCC4)CC2)cc1 |
| 175 | COc1ccc2c(c1OC)CC[C@H]2NC(C)=O |
| 146 to 147 | CC(C)(C)c1cc2c(c(C(C)(C)C)c1)OC(=O)C2c1ccc(F)cc1 (stereo unspecified) |
